Target: T1, Human TRPC6 (Homo sapiens, UniProt Q9Y210)
T1 construct: expressed in transfected cells
T1 sequence (Q9Y210 1-931): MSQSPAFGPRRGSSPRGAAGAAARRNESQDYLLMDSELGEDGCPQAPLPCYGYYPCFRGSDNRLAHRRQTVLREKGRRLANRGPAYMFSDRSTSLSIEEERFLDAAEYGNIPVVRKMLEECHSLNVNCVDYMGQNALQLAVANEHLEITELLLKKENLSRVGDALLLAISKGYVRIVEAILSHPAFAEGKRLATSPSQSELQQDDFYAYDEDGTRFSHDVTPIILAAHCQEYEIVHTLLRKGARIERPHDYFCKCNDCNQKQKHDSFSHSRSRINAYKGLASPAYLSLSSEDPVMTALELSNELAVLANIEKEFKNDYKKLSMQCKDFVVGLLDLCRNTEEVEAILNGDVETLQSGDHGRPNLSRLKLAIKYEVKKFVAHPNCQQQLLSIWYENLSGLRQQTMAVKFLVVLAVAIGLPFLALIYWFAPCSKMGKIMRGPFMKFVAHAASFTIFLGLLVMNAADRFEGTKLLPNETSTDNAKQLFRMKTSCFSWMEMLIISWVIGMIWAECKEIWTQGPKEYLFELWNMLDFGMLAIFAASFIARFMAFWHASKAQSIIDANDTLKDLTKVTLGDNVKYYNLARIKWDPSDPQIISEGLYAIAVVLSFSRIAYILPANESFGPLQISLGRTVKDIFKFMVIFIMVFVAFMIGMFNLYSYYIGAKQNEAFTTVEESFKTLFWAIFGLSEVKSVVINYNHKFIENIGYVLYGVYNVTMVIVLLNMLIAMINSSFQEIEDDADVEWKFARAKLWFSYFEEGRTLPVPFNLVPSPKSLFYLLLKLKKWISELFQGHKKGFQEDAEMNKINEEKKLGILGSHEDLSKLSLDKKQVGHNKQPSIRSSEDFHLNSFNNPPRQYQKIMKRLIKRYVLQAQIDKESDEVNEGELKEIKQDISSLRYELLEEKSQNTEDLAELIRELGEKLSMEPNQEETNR
Assay: Evaluation of TRPC6 channel inhibitory activity (1), FLIPR Calcium 5 Assay Kit, OAG stimulation (Compound Nos. 1-1293)
Assay type: cell-based
Conditions: Human TRPC6 stably-expressing cells, OAG 30 μM, FLIPR Calcium 5 Assay Kit; read-out: Inhibitory activity (pIC50 class) (converted)
Description: Evaluation of TRPC6 Channel Inhibitory Activity (1) (Compound Nos. 1-1293)
In order to investigate TRPC6 channel inhibitory activity of the compounds, evaluation was conducted using FLIPR® Calcium 5 Assay Kit (Molecular Devices) in accordance with the following procedure. Human TRPC6 stably-expressing cells were seeded in a 384-well black clear bottom plate at a density of 5×10^3/well and cultured in an incubator at 37° C. 5% CO2 for 24 hours. Thereafter, 25 μL of a Non Wash Dye Solution, prepared using Component A, 20 mM HEPES-HBSS and 250 mM probenecid, all of which are included in the kit, was added to each well, and the plate was incubated for 30 minutes. A volume of 12.5 μL of a compound solution was added into each well while the fluorescence was measured with FLIPR tetra. After 20 minutes, 12.5 μL of a 1-oleoyl-2-acetyl glycerol (OAG) solution was added at a final concentration of 30 μM. The difference between the minimum fluorescence intensity before the addition of the compound and the maximum fluorescence intensity after the addition of OAG was defined as a signal. An inhibition rate was calculated, assuming the average signal of wells without the compound as the inhibition rate of 0% and the average signal of wells without the compound and OAG as the inhibition rate of 100%. The calculated inhibition rate was analyzed by a four-parameter logistic regression to quantify the inhibition rate in the logarithm of the inverse of the effective concentration which gives a 50% inhibition rate (pIC50). The intensity was expressed by the following symbols (+, ++, +++).

Row | SMILES | IC50 [µM]
1 | Cn1nc(C2CC2)cc1Oc1cc(C#N)ccc1-c1cccn2c(C[C@H](N)C(=O)O)nnc12 (stereo in doubt) [compound 581, 2-amino-3-[8-[4-cyano-2-(5-cyclopropyl-2-methylpyrazol-3-yl)oxyphenyl]-[1,2,4]triazolo[4,3-a]pyridin-3-yl]propanoic acid] | > 1
2 | N#Cc1ccc(-c2ccc(CN)cc2)c(Nc2cc(-c3ccccc3)ncn2)c1 [Compound 1, 4-[4-(aminomethyl)phenyl]-3-[(6-phenylpyrimidin-4-yl)amino]benzonitrile] | 0.01 to 1
3 | Cc1nc(Nc2cc(C#N)ccc2-c2ccc3c(c2)COC32CNC2)cc(N2CCOCC2)n1 [Compound 3, 3-[(2-methyl-6-morpholin-4-ylpyrimidin-4-yl)amino]-4-spiro[3H-2-benzofuran-1,3′-azetidin]-5-ylbenzonitrile] | 0.01 to 1
4 | Cc1nc(Nc2cc(C#N)ccc2-c2ccc(C(=O)CN)cc2)cc(N2CCOCC2)n1 [Compound 4, 4-[4-(2-Aminoacetyl)phenyl]-3-[(2-methyl-6-morpholin-4-ylpyrimidin-4-yl)amino]benzonitrile] | > 1
5 | CN(c1cc(C#N)ccc1-c1ncc(CCN)cn1)c1cc(-c2ccccc2)nn1C [Compound 6, 4-[5-(2-Aminoethyl)pyrimidin-2-yl]-3-[methyl-(2-methyl-5-phenylpyrazol-3-yl)amino]benzonitrile] | < 0.01
6 | Cc1nc(Oc2cc(C#N)ccc2-c2ccc(C(=O)CN)cc2)cc(N2CCOCC2)n1 [Compound 8, 4-[4-(2-aminoacetyl)phenyl]-3-(2-methyl-6-morpholin-4-ylpyrimidin-4-yl)oxybenzonitrile] | > 1
7 | Cc1nc(Oc2cc(C#N)ccc2-c2ccc(C(O)CN)cc2)cc(N2CCOCC2)n1 (stereo not drawn) [Compound 9, 4-[4-(2-amino-1-hydroxyethyl)phenyl]-3-(2-methyl-6-morpholin-4-ylpyrimidin-4-yl)oxybenzonitrile] | < 0.01
8 | Cc1nc(Oc2cc(C#N)ccc2-c2ccc(N3CCN(C)CC3)cc2)cc(N2CCOCC2)n1 [Compound 10, 3-(2-methyl-6-morpholin-4-ylpyrimidin-4-yl)oxy-4-[4-(4-methylpiperazin-1-yl)phenyl]benzonitrile] | > 1
9 | COC(CN)c1ccc(-c2ccc(C#N)cc2Oc2cc(N3CCOCC3)nc(C)n2)cc1 (stereo not drawn) [Compound 11, 4-[4-(2-Amino-1-methoxyethyl)phenyl]-3-(2-methyl-6-morpholin-4-ylpyrimidin-4-yl)oxybenzonitrile] | < 0.01
10 | Cc1nc(Oc2cc(C#N)ccc2-c2cnc(N)nc2)cc(N2CCOCC2)n1 [Compound 14, 4-(2-aminopyrimidin-5-yl)-3-(2-methyl-6-morpholin-4-ylpyrimidin-4-yl)oxybenzonitrile] | > 1
11 | CCN(CC)c1cc(Oc2cc(C#N)ccc2-c2ccc(CCN)cc2)nc(C)n1 [Compound 15, 4-[4-(2-aminoethyl)phenyl]-3-[6-(diethylamino)-2-methylpyrimidin-4-yl]oxybenzonitrile] | 0.01 to 1
12 | CCCN(CCC)c1cc(Oc2cc(C#N)ccc2-c2ccc(CCN)cc2)nc(C)n1 [Compound 16, 4-[4-(2-aminoethyl)phenyl]-3-[6-(dipropylamino)-2-methylpyrimidin-4-yl]oxybenzonitrile] | 0.01 to 1
13 | Cc1nc(Oc2cc(C#N)ccc2-c2ccc(CCN)cc2)cc(N2CCC(F)(F)CC2)n1 [Compound 18, 4-[4-(2-aminoethyl)phenyl]-3-[6-(4,4-difluoropiperidin-1-yl)-2-methylpyrimidin-4-yl]oxybenzonitrile] | 0.01 to 1
14 | Cc1nc(Oc2cc(C#N)ccc2-c2ccc(CCN)cc2)cc(N2CCCC(F)(F)C2)n1 [Compound 19, 4-[4-(2-aminoethyl)phenyl]-3-[6-(3,3-difluoropiperidin-1-yl)-2-methylpyrimidin-4-yl]oxybenzonitrile] | 0.01 to 1
15 | Cc1nc(Oc2cc(C#N)ccc2-c2ccc(CCN)cc2)cc(-c2ccccc2O)n1 [Compound 22, 4-[4-(2-aminoethyl)phenyl]-3-[6-(2-hydroxyphenyl)-2-methylpyrimidin-4-yl]oxybenzonitrile] | 0.01 to 1
16 | Cc1nc(Oc2cc(C#N)ccc2-c2ccc(CCN)cc2)cc(-c2ccccc2C(F)(F)F)n1 [Compound 23, 4-[4-(2-aminoethyl)phenyl]-3-[2-methyl-6-[2-(trifluoromethyl)phenyl]pyrimidin-4-yl]oxybenzonitrile] | 0.01 to 1

Next, values leading:

Row | IC50 [µM] | SMILES
17 | < 0.01 | Cn1nc(-c2cccc(F)c2)cc1Oc1cc(C#N)ccc1-c1ncc([C@H](O)CN)cn1 (stereo in doubt) [compound 404, 4-[5-(2-amino-1-hydroxyethyl)pyrimidin-2-yl]-3-[5-(3-fluorophenyl)-2-methylpyrazol-3 yl]oxybenzonitrile]
18 | > 1 | Cn1nc(C2CC2)cc1Oc1cc(C#N)ccc1-c1cccn2c([C@@H](N)CCO)nnc12 (stereo in doubt) [compound 533, 4-[3-(1-amino-3-hydroxypropyl)-[1,2,4]triazolo[4,3-a]pyridin-8-yl]-3-(5-cyclopropyl-2-methylpyrazol-3-yl)oxybenzonitrile]
19 | < 0.01 | Cc1nc(Nc2cc(C#N)ccc2-c2ccc(CCN)cc2)cc(N2CCOCC2)n1 [Compound 2, 4-[4-(2-aminoethyl)phenyl]-3-[(2-methyl-6-morpholin-4-ylpyrimidin-4-yl)amino]benzonitrile]
20 | > 1 | Cc1nc(N2CCOCC2)cc(N(C)c2cc(C#N)ccc2-c2ccc3c(c2)COC32CN(C)C2)n1 [Compound 5, 3-[methyl-(2-methyl-6-morpholin-4-ylpyrimidin-4-yl)amino]-4-(1′-methylspiro[3H-2-benzofuran-1,3′-azetidin]-5-yl)benzonitrile]
21 | < 0.01 | Cc1nc(Oc2cc(C#N)ccc2-c2ccc(CCN)cc2)cc(N2CCOCC2)n1 [Compound 7, 4-[4-(2-Aminoethyl)phenyl]-3-(2-methyl-6-morpholin-4-ylpyrimidin-4-yl)oxybenzonitrile]
22 | > 1 | Cc1nc(Oc2cc(C#N)ccc2-c2ccc(N3CCNCC3)cc2)cc(N2CCOCC2)n1 [Compound 12, 3-(2-methyl-6-morpholin-4-ylpyrimidin-4-yl)oxy-4-(4-piperazin-1-ylphenyl)benzonitrile]
23 | 0.01 to 1 | Cc1nc(Oc2cc(C#N)ccc2-c2ccc(C(CN)Oc3ccccc3)cc2)cc(N2CCOCC2)n1 (stereo not drawn) [Compound 13, 4-[4-(2-Amino-1-phenoxyethyl)phenyl]-3-(2-methyl-6-morpholin-4-ylpyrimidin-4-yl)oxybenzonitrile]
24 | < 0.01 | Cc1nc(Oc2cc(C#N)ccc2-c2ccc(CCN)cc2)cc(N2CCCCC2)n1 [Compound 17, 4-[4-(2-Aminoethyl)phenyl]-3-(2-methyl-6-piperidin-1-ylpyrimidin-4-yl)oxybenzonitrile]
25 | 0.01 to 1 | Cc1nc(Oc2cc(C#N)ccc2-c2ccc(CCN)cc2)cc(-c2ccnn2C)n1 [Compound 20, 4-[4-(2-aminoethyl)phenyl]-3-[2-methyl-6-(2-methylpyrazol-3-yl)pyrimidin-4-yl]oxybenzonitrile]
26 | < 0.01 | Cc1nc(Oc2cc(C#N)ccc2-c2ccc(CCN)cc2)cc(-c2ccccc2C#N)n1 [Compound 21, 4-[4-(2-Aminoethyl)phenyl]-3-[6-(2-cyanophenyl)-2-methylpyrimidin-4-yl]oxybenzonitrile]
27 | 0.01 to 1 | Cc1nc(Oc2cc(C#N)ccc2-c2ccc(CCN)cc2)cc(N2CC(F)(F)C2)n1 [Compound 24, 4-[4-(2-aminoethyl)phenyl]-3-[6-(3,3-difluoroazetidin-1-yl)-2-methylpyrimidin-4-yl]oxybenzonitrile]

Reference: patent US20230167073A1 (Teijin Pharma Limited, priority 2020, published 2023)
